Patent US9212180B2 (priority 2013, dated 2015)

Assays:
Hoxa9 and Meis1 = test: Expression level of Hoxa9 and Meis1 in MLL-AF9 transformed bone marrow cells; assay type: cell-based, murine; conditions: FIG. 1B
[1] = tested on: MLL-AF9 transformed murine bone marrow cells; test: Differentiation of MLL-AF9 transformed murine bone marrow cells; assay type: cell-based; conditions: for differentiation as assessed by increased expression of the CD11b differentiation marker: FIG. 4; for differentiation as assessed by significant change in morphology: FIG. 5
ML-2 = test: Apoptosis in human MLL leukemia cell line ML-2; assay type: cell-based; conditions: FIG. 8A
MLL leukemia cells = test: Cell cycle arrest in MLL leukemia cells; assay type: cell-based; conditions: different MLL leukemia cells; FIG. 9
KOPN8 = test: Differentiation of human MLL leukemia cell line KOPN8; assay type: cell-based; conditions: FIG. 7
[2] = tested on: MLL-AF9 transformed murine bone marrow cells; test: Colony forming assay in MLL-AF9 transformed murine bone marrow cells; assay type: cell-based; conditions: FIG. 10
MonoMac-6 = test: Differentiation of human MLL leukemia cell line MonoMac-6; assay type: cell-based; conditions: FIG. 7
MV4;11 [3] = test: Apoptosis in human MLL leukemia cell line MV4;11; assay type: cell-based; conditions: FIG. 8A
Kasumi-1 = test: Apoptosis in control cell line Kasumi-1 without MLL translocation; assay type: cell-based; conditions: Kasumi-1 control cell line without MLL translocation; FIG. 8B
MI-2 = test: Differentiation of human MLL leukemia cell line MI-2; assay type: cell-based; conditions: FIG. 7
MV4;11 [4] = test: Differentiation of human MLL leukemia cell line MV4;11; assay type: cell-based; conditions: FIG. 6, FIG. 7
[5] = tested on: MLL-ENL transformed murine bone marrow cells; test: Proliferation of MLL-ENL transformed murine bone marrow cells; assay type: cell-based; conditions: FIG. 2
[6] = tested on: MLL-AF9 transformed murine bone marrow cells; test: Proliferation of MLL-AF9 transformed murine bone marrow cells; assay type: cell-based; conditions: FIG. 2

Structure (SMILES) | expression level of Hoxa9 and Meis1 (Hoxa9 and Meis1) | differentiation as assessed by increased expression of the CD11b differentiation marker [1] | differentiation as assessed by significant change in morphology [1] | apoptosis (ML-2) | cell cycle arrest (MLL leukemia cells) | differentiation (change in the CD11b expression and change in morphology of cells) (KOPN8) | transforming properties of MLL-AF9 fusion protein (colony number, morphology of colonies) [2] | differentiation (change in the CD11b expression and change in morphology of cells) (MonoMac-6) | apoptosis (MV4;11 [3]) | apoptosis (Kasumi-1) | differentiation (change in the CD11b expression and change in morphology of cells) (MI-2) | differentiation (CD11b expression and morphology change) (MV4;11 [4]) | inhibition of proliferation [5] | inhibition of proliferation [6]
N#Cc1ccc(OCCCN2CCC([C@](O)(c3ccccc3)C3CCCC3)CC2)cc1 [Compound B19] | strongly downregulates | induces differentiation | induces differentiation | induce apoptosis | induce cell cycle arrest | induce differentiation | reduce transforming properties | induce differentiation | induce apoptosis | No effect on apoptosis | induce differentiation | induce differentiation |  | 
N#Cc1ccc(OCCCN2CCC(C(O)c3ccccc3)CC2)cc1 (stereo not shown) [B76 (NC)] |  |  |  | but not the control compound (NC) induce apoptosis | No such effect |  | but not NC reduce transforming properties |  | but not the control compound (NC) induce apoptosis | No effect on apoptosis |  |  | No such effect | No such effect
N#Cc1ccc(OCCCN2CCC([C@@](O)(c3ccccc3)C3CCCC3)CC2)cc1 [Compound B20] | strongly downregulates | induces differentiation | induces differentiation | induce apoptosis | induce cell cycle arrest | induce differentiation | reduce transforming properties | induce differentiation | induce apoptosis | No effect on apoptosis | induce differentiation | induce differentiation |  | 
